Data taken from paper PMC9139979, “Features of ZED1227: The First-In-Class Tissue Transglutaminase Inhibitor Undergoing Clinical Evaluation for the Treatment of Celiac Disease” (Cells, 2022).
Square brackets hold non-standard residues; d marks the D form. Peptide text beside a SMILES is read from it. * marks the point of attachment. Nle(5E-ene,6-CO2Et) = CCOC(=O)/C=C/CC[C@H](N)C(=O)O; DON = [N-]=[N+]=CC(=O)CC[C@H](N)C(=O)O; Cbz = O=C(OCc1ccccc1)*

Columns and labels:
hTG2 = biological target: T1, hTG2 (Homo sapiens, UniProt P21980); assay: Fluorescent transamidation assay (DCC-assay), hTG2; assay type: biochemical; conditions: for IC50: recombinant human TG2, transamidation assay, apparent IC50 of irreversible inhibitor, read-out: App. IC50 hTG2; for Fold less potent compared to ZED1227 (hTG2): same transamidation assay
T1 construct: purchased Zedira T022
T1 sequence (P21980 1-687): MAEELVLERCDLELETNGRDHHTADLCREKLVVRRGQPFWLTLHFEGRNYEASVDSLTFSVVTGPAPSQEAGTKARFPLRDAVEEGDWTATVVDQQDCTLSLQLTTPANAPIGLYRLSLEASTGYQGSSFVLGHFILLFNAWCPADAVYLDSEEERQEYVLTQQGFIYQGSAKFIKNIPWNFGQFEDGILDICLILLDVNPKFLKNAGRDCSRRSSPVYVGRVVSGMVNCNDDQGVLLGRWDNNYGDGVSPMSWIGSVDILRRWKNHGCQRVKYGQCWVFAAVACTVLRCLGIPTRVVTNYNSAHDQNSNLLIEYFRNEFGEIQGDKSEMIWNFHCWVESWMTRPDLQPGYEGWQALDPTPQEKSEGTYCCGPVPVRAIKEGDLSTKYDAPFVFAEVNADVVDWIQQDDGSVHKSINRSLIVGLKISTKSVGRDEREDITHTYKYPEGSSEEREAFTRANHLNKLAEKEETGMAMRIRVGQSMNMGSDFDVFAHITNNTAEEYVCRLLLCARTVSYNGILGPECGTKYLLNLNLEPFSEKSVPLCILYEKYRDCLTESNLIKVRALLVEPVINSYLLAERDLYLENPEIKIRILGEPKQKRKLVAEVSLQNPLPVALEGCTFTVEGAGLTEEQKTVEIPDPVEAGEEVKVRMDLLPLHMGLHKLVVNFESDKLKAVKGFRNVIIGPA
Description: Inhibition data were determined using the fluorescent transamidation assay (dansylcadaverine incorporation into glutamine-donor substrate N,N-dimethyl casein, DCC-assay). Briefly, to 15 μL of ZED1227 solution (dissolved and serial diluted in 2% (v/v) DMSO/assay buffer), 285 μL assay buffer [47.5 mM tris(hydroxymethyl)aminomethane, 9.5 mM CaCl2, 9.5 mM glutathione, 2.4% (v/v) glycerol, 190 mM NaCl, pH 8.0] containing dansylcadaverine (15.9 μM), N,N-dimethyl casein (3.8 μM) and the indicated recombinant transglutaminase enzyme [0.95 μg/mL hTG1 (T035), 0.81 μg/mL hTG2 (T022), 0.83 μg/mL hTG6 (T021), all from Zedira] were added, mixed and the kinetic measurement started immediately. In the case of hFXIII-A2 (0.83 μg/mL, T027, Zedira), the assay buffer contained human α-thrombin (5.2 × 10^−3 U/μL, T056, Zedira). The mixture was incubated for 20 min at room temperature to activate FXIII. In the case of hTG3a (0.81 μg/mL, T013, Zedira), full enzymatic activity was obtained by incubation for 80 min at 37 °C in assay buffer before addition of the inhibitor and start of the kinetics.
Fluorescence emission was continuously monitored for 30 min at λem = 500 nm (λex = 330 nm) and 37 °C using a CLARIOstar fluorescence plate reader (BMG Labtech, Ortenberg, Germany). All measurements were performed in triplicate. The respective IC50 (and IC90 for TG2) values were calculated by non-linear regression using the MARS software package (BMG Labtech). An irreversible-acting inhibitor, such as ZED1227, should, correctly, be characterized by the second-order rate constant k2nd, as detailed by Keillor [46]. However, such data are rather abstract and difficult to comprehend.
To facilitate comparability during lead structure optimization and to roughly estimate concentrations needed at the target site, the apparent IC50 values (calculated by four-parameter non-linear fit by MARS software) for irreversible inhibitors are more instructive and are therefore reported. Further, we report the potency of commercially available reference inhibitors Z006 (“Z-DON”), Z013 (ZED754), and T101 (all Zedira). To gain deeper mechanistic insight, we discuss the second-order rate constants (k2nd) published for Z006 and ZED754 in relation to their respective IC50 values.

TG2 = biological target: TG2; parameters: method as in PMID 32045569; conditions: TG2 catalyzed hydrolysis of Z-Glu(HMC)-Gly-OH at pH 6.5; cited from earlier work

IC50 (hTG2) | SMILES | Ki (TG2) | k2nd (second-order rate constant) (TG2) | Fold less potent compared to ZED1227 (hTG2) (hTG2)
70 nM | COC(=O)[C@H](CC(C)C)NC(=O)[C@@H]1CCCN1C(=O)[C@@H](NC(=O)[C@H](CCC(=O)C=[N+]=[N-])NC(=O)OCc1ccccc1)C(C)C [Z006, Z-DON-Val-Pro-Leu-OMe] (Cbz-[DON]VPL-OMe) | 96 nM | 191,000 M^−1s^−1 | –
1780 nM | CC(=O)CSc1n(C)c(C)c(C)[n+]1C.[Cl-] [T101] | – | – | 33 fold

SMILES | IC50 (hTG2) | Ki (TG2) | k2nd (second-order rate constant) (TG2) | Fold less potent compared to ZED1227 (hTG2) (hTG2)
CCOC(=O)/C=C/CC[C@H](NC(=O)OCc1ccccc1)C(=O)N[C@@H](CCC(N)=O)C(=O)N1CCC[C@H]1C(=O)N[C@@H](CC(C)C)C(=O)OC [ZED754] (Cbz-[Nle(5E-ene,6-CO2Et)]QPL-OMe) | 182 nM | 450 nM | 51,500 M^−1s^−1 | about 3.5 fold
